Test results published in patent publication US20090239846A1, “Novel Compounds” (Glaxo Group Limited, priority 2005, published 2009).
Where a name gives a salt, the structure may show the parent alone. Read-outs that look alike come from different tables or passages of the source.

Key:
[1] = tested on: TGF-β-induced fibronectin and thrombospondin; details: Laping et al., 2002; cited from earlier work
Recombinant human p38α [2] = biological target: T1, Recombinant human p38α (Homo sapiens, UniProt Q16539); assay: Fluorescence anisotropy kinase binding assay (standard or low volume); details: for IC50: bound, read-out: apparent pIC50 (converted); for active in the assay (pIC50, p38α binding): 12 nM p38α, 5 nM fluorescent ligand
T1 construct: GST; made in house
Procedure, shortened: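 Activated GST-tagged recombinant human p38α (pre-activated with MBP-MKK6 DD) at 12 nM final with 5 nM rhodamine green-labelled pyridinylimidazole tracer in pH 7.5 HEPES/CHAPS/DTT/MgCl2 buffer. Test compound 0.28 nM–16.6 μM or 0.02 nM–25 μM final, 3% or 1.7% DMSO; 30–60 min at room temperature. Fluorescence anisotropy read (ex 485/em 535 nm) for Ki.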

Recombinant human p38α [3] = biological target: T1, Recombinant human p38α; assay: Time-resolved fluorescence resonance energy transfer (TR-FRET) kinase assay (standard or low volume); format: biochemical
Description: […] To activate this protein, 3 μM unactivated p38α was incubated in 200 mM Hepes pH 7.4, 625 mM NaCl, 1 mM DTT with 27 nM active MKK6 (Upstate), 1 mM ATP and 10 mM MgCl2 The activity of the MKK6-activated p38α was assessed using a time-resolved fluorescence resonance energy transfer (TR-FRET) assay. Biotinylated-GST-ATF2 (residues 19-96, 400 nM final), ATP ([…]) and MgCl2 (5 mM final) in assay buffer (40 mM HEPES pH 7.4, 1 mM DTT) were added to wells containing 1 ul of various concentrations of compound or DMSO vehicle (3% final) in NUNC 384 well black plate. The reaction was initiated by the addition of MKK6-activated p38 (100 pM final) to give a total volume of 30 ul. The reaction was incubated for 120 minutes at room temperature, then terminated by the addition of 15 μl of 100 mM EDTA pH 7.4. Detection reagent (15 μl) in buffer (100 mM HEPES pH 7.4, 150 mM NaCl, 0.1% w/v BSA, 1 mM DTT) containing antiphosphothreonine-ATF2-71 polyclonal antibody (Cell Signalling Technology, Beverly Mass., USA) labelled with W-1024 europium chelate (Wallac OY, Turku, Finland), and APC-labelled streptavidin (Prozyme, San Leandro, Calif., USA) was added and the reaction was further incubated for 60 minutes at room temperature. The degree of phosphorylation of GST-ATF2 was measured using a Packard Discovery plate reader (Perkin-Elmer Life Sciences, Pangbourne, UK) as a ratio of specific 665 nm energy transfer signal to reference europium 620 nm signal.
[…] To activate this protein, 3 μM unactivated p38α was incubated in 200 mM Hepes pH7.4, 625 mM NaCl, 1 mM DTT with 27 nM active MKK6 (Upstate), 1 mM ATP and 10 mM MgCl2 The activity of the MKK6-activated p38α was assessed using a time-resolved fluorescence resonance energy transfer (TR-FRET) assay. Biotinylated-GST-ATF2 (residues 19-96, 400 nM final), ATP (125 μM final) and MgCl2 (5 mM final) in assay buffer (40 mM HEPES pH 7.4, 1 mM DTT) were added to wells containing 0.1 μl of various concentrations of compound or DMSO vehicle (1.7% final) in Greiner low volume 384 well black plate. The reaction was initiated by the addition of MKK6-activated p38α (100 pM final) to give a total volume of 6 μl. The reaction was incubated for 120 minutes at room temperature, then terminated by the addition of 3 μl of detection reagent in buffer (100 mM HEPES pH 7.4, 150 mM NaCl, 0.1% w/v BSA, 1 mM DTT, 100 mM EDTA) containing antiphosphothreonine-ATF2-71 polyclonal antibody (Cell Signalling Technology, Beverly Mass., USA) labelled with W-1024 europium chelate (Wallac OY, Turku, Finland), and APC-labelled streptavidin (Prozyme, San Leandro, Calif., USA). The reaction was further incubated for 60 minutes at room temperature. The degree of phosphorylation of GST-ATF2 was measured using a BMG Rubystar plate reader (BMG, UK) as a ratio of specific 665 nm energy transfer signal to reference europium 620 nm signal. It is noted that there are two assay formats shown above for the Time-resolved fluorescence resonance energy transfer kinase assay. The only difference between these two assays is the volume used and the plate type. […] The results described herein may have been performed in either assay format and are not differentiated as to which.

[4] = tested on: IL-8 production by human neutrophils; assay: TNF-stimulated IL-8 production from human neutrophils; format: cell-based; details: Neutrophil
Description: TNF-Stimulated IL-8 Production from Human Neutrophils The effect of test compounds on TNF-stimulated IL8 production by human neutrophils is measured as follows. Neutrophils are prepared from blood obtained from consenting donors, using standard methods. Blood is collected in heparinized syringes and layered over histopaque (30 ml/20 ml). Following centrifugation, the red cell pellet is resuspended in PBS and purified over a dextran gradient. Red blood cells are lysed with water for 40 sec, remaining granulocytes collected by centrifugation and resuspended at 1.5×10̂6 cells/ml. Cells are added (0.5-1 ml) to 48 well plates already containing compound at 1000×final concentration in neat DMSO or 10% DMSO in RPMI1640 with 10% FBS. TNF (final concentration 100 ng/ml) is used as the stimulus. Cells incubated for approximately 20 hrs at 37° C., 5% CO2. Levels of IL-8 in the cell free supernatant are determined by sandwich ELISA, and inhibition relative to a control with DMPO but no compound is calculated.

[5] = tested on: IL-6, IL-8, GM-CSF, RANTES and COX-2 synthesis; details: a number of different cell types; cited from earlier work
TNFalpha = assay: LPS-stimulated cytokine production in human whole blood; format: cell-based; details: LPS-stimulated TNF-alpha, bound, read-out: IC50
Description: Assay: Test compound concentrations were prepared at 10× concentrations and LPS prepared at 1 ug/ml (final conc. of 50 ng/ml LPS) and added in 50 uL volumes to 1.5 mL eppendorf tubes. Heparinized human whole blood was obtained from healthy volunteers and was dispensed into eppendorf tubes or multiwell plates containing compounds and LPS in 0.2-0.4 mL volumes and the tubes incubated at 37 C. In some studies, compound was incubated with blood for up to 30 min prior to addition of LPS. Following a 4 hour incubation, the tubes or plates were centrifuged to remove cells and plasma was withdrawn and frozen at −80 C. Cytokine measurement: IL-1beta and/or TNFalpha were quantified using a standardized ELISA, or similar technology. Concentrations of IL-1beta or TNFalpha were determined from standard curves of the appropriate cytokine and IC50 values for test compound (concentration that inhibited 50% of LPS-stimulated cytokine production) were calculated by linear regression analysis.

[6] = bound, read-out: pIC50 (converted)
[7] = bound, not more than 50% inhibition at 100 nM, read-out: IC50
[8] = second end given as 'less than', read-out: pIC50, broad range of data upon multiple runs (converted)

T1 sequence (Q16539 whole entry): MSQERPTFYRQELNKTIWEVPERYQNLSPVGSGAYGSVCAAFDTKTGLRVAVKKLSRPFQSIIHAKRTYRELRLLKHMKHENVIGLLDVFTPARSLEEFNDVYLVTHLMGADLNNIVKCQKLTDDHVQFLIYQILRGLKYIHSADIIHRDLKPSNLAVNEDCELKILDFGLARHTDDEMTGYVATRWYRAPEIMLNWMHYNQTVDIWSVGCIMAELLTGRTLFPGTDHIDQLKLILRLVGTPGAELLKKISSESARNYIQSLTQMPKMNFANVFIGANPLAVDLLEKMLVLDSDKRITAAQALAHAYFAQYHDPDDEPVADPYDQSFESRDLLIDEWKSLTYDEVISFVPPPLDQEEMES

IC50 (Recombinant human p38α [2]) [µM] | IC50 [4, 7] [µM] | IC50 (Recombinant human p38α [3]; [8]) [µM] | Compound | other results
> 15.8 | > 0.1 |  | CCCNC(=O)c1ccc(-c2nc(NCCN(C)C)nc3c2CNC(=O)N3c2c(F)cccc2F)c(C)c1 [Example 105, 4-(8-(2,6-difluorophenyl)-2-{[2-(dimethylamino)ethyl]amino}-7-oxo-5,6,7,8-tetrahydropyrimido[4,5-d]pyrimidin-4-yl)-3-methyl-N-propylbenzamide trifluoroacetate] | IC50 (Recombinant human p38α [3]; [6]): > 1.58 µM
> 15.8 | > 0.1 | ≥ 0.158 | Cc1cc(C(=O)N(C)C)ccc1-c1nc(NCCN(C)C)nc2c1CNC(=O)N2c1c(F)cccc1F [Example 108, 4-(8-(2,6-difluorophenyl)-2-{[2-(dimethylamino)ethyl]amino}-7-oxo-5,6,7,8-tetrahydropyrimido[4,5-d]pyrimidin-4-yl)-N,N,3-trimethylbenzamide trifluoroacetate] | 
> 15.8 | > 0.1 |  | Cc1cc(C(N)=O)ccc1-c1nc(NCCN(C)C)nc2c1CNC(=O)N2c1c(F)cccc1F [Example 110, 4-(8-(2,6-difluorophenyl)-2-{[2-(dimethylamino)ethyl]amino}-7-oxo-5,6,7,8-tetrahydropyrimido[4,5-d]pyrimidin-4-yl)-3-methylbenzamide trifluoroacetate] | IC50 (Recombinant human p38α [3]; [6]): > 1.58 µM
> 15.8 |  | ≥ 0.158 | CNC(=O)c1ccc(-c2nc(NCCN(C)C)nc3c2CNC(=O)N3c2c(F)cccc2F)cc1 [Example 102, 4-(8-(2,6-difluorophenyl)-2-{[2-(dimethylamino)ethyl]amino}-7-oxo-5,6,7,8-tetrahydropyrimido[4,5-d]pyrimidin-4-yl)-N-methylbenzamide trifluoroacetate] | 
 |  | ≥ 0.158 | Cc1ccc(C(=O)O)cc1-c1nc(NCCN(C)C)nc2c1CNC(=O)N2c1c(F)cccc1F [Example 117, 3-(8-(2,6-difluorophenyl)-2-{[2-(dimethylamino)ethyl]amino}-7-oxo-5,6,7,8-tetrahydropyrimido[4,5-d]pyrimidin-4-yl)-4-methylbenzoic acid] | IC50 (TNFalpha): > 1 µM; active in the assay (pIC50, p38α binding) (Recombinant human p38α [2]): active
> 15.8 | > 0.1 |  | Cc1cc(C(=O)Nc2ccc(F)cc2)ccc1-c1nc(NCCN(C)C)nc2c1CNC(=O)N2c1c(F)cccc1F [Example 107, 4-(8-(2,6-difluorophenyl)-2-{[2-(dimethylamino)ethyl]amino}-7-oxo-5,6,7,8-tetrahydropyrimido[4,5-d]pyrimidin-4-yl)-N-(4-fluorophenyl)-3-methylbenzamide trifluoroacetate] | IC50 (Recombinant human p38α [3]; [6]): > 1.58 µM
> 15.8 | > 0.1 | ≥ 0.158 | Cc1cc(C(=O)Nc2ccccc2)ccc1-c1nc(NCCN(C)C)nc2c1CNC(=O)N2c1c(F)cccc1F [Example 106, 4-(8-(2,6-difluorophenyl)-2-{[2-(dimethylamino)ethyl]amino}-7-oxo-5,6,7,8-tetrahydropyrimido[4,5-l]pyrimidin-4-yl)-3-methyl-N-phenylbenzamide trifluoroacetate] | 

The next lines start with the molecule.

Compound | IC50 (Recombinant human p38α [2]) [µM] | IC50 [4, 7] [µM] | IC50 (Recombinant human p38α [3]; [8]) [µM] | other results
COc1nccc(-c2c(-c3ccc(F)cc3)ncn2C2CCNCC2)n1 [SB-242235] |  |  |  | effect on TGF-β-induced increases in fibronectin and thrombospondin [1]: inhibited
CC(C)NC(=O)c1ccc(-c2nc(NCCN(C)C)nc3c2CNC(=O)N3c2c(F)cccc2F)cc1 [Example 97, 4-(8-(2,6-difluorophenyl)-2-{[2-(dimethylamino)ethyl]amino}-7-oxo-5,6,7,8-tetrahydropyrimido[4,5-d]pyrimidin-4-yl)-N-(1-methylethyl)benzamide trifluoroacetate] | > 15.8 |  | ≥ 0.158 | 
C[S+]([O-])c1ccc(-c2nc(-c3ccncc3)c(-c3ccc(F)cc3)[nH]2)cc1 (stereo not drawn) [SB-203580] |  |  |  | decreasing the synthesis of pro-inflammatory proteins including IL-6, IL-8, GM-CSF, RANTES and COX-2 [5]: effective
Cc1cc(C(=O)NC(C)C)ccc1-c1nc(NCCN(C)C)nc2c1CNC(=O)N2c1c(F)cccc1F [104(c), 4-(8-(2,6-difluorophenyl)-2-{[2-(dimethylamino)ethyl]amino}-7-oxo-5,6,7,8-tetrahydropyrimido[4,5-d]pyrimidin-4-yl)-3-methyl-N-(1-methylethyl)benzamide trifluoroacetate] | > 15.8 | > 0.1 | ≥ 0.158 | 
Fc1ccc(-c2nc3n(c2-c2ccncc2)CCS3)cc1 [SK&F 86002] |  |  |  | decreasing the synthesis of pro-inflammatory proteins including IL-6, IL-8, GM-CSF, RANTES and COX-2 [5]: effective
Cc1ccc(C(=O)NC2CCC2)cc1-c1nc(N2CCC(N)CC2)nc2c1CNC(=O)N2c1c(F)cccc1F [1(g), 3-[2-(4-Amino-1-piperidinyl)-8-(2,6-difluorophenyl)-7-oxo-5,6,7,8-tetrahydropyrimido[4,5-d]pyrimidin-4-yl]-N-cyclobutyl-4-methylbenzamide] |  |  | ≥ 0.00794 | active in the assay (pIC50, p38α binding) (Recombinant human p38α [2]): active; IC50 ([4]; ends given as 'less than' / 'greater than', read-out: IC50, broad range of data upon multiple runs): 0.04 to 0.1 µM
Cc1ccc(C(=O)NCc2ccccc2)cc1-c1nc(NCCN(C)C)nc2c1CNC(=O)N2c1c(F)cccc1F [Example 18, 3-(8-(2,6-Difluorophenyl)-2-{[2-(dimethylamino)ethyl]amino}-7-oxo-5,6,7,8-tetrahydropyrimido[4,5-d]pyrimidin-4-yl)-4-methyl-N-(phenylmethyl)benzamide] |  |  | ≥ 0.00794 | melting point: 148 to 150 °C
Cc1ccc(C(=O)Nc2ccc(C)c(-c3nc(NC4CCNCC4)nc4c3CNC(=O)N4c3c(F)cccc3F)c2)cc1F [Example 27(b), N-{3-[8-(2,6-difluorophenyl)-7-oxo-2-(4-piperidinylamino)-5,6,7,8-tetrahydropyrimido[4,5-d]pyrimidin-4-yl]-4-methylphenyl}-3-fluoro-4-methylbenzamide] |  |  |  | active in the assay (pIC50, p38α binding) (Recombinant human p38α [2]): active; IC50 (Recombinant human p38α [3]; [6]): > 15.8 µM; melting point: 218 to 223.5 °C
